Test results: ChEMBL document CHEMBL4418912, “Methods of identifying antagonists of the hTAS2R46 bitter taste receptor” (2014)
Activity calls are given as the source filed them. The rule behind the calls is not given here.

Columns and labels:
Type in all cases: functional, cell-based
[1] = molecular target: T1, Taste receptor type 2 member 46 (Homo sapiens) (UniProt P59540); assay: Antagonist activity at recombinant human N-terminal rat ST3 receptor-fused TAS2R46 expressed in HEK293T cells co-expressing Galpha16gust44 assessed as inhibition of picrotoxinin-induced intracellular calcium level at 100 uM by FLIPR assay
T1 sequence (whole entry): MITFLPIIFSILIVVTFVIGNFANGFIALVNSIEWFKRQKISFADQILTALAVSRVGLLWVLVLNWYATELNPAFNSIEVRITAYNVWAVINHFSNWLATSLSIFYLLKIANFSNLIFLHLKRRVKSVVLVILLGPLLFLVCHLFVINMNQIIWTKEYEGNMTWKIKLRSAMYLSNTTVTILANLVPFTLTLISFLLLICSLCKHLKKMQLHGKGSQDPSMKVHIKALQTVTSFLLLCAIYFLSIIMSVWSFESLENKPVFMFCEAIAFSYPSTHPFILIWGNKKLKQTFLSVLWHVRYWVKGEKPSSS

[2] = molecular target: T2, Taste receptor type 2 member 1 (Homo sapiens) (UniProt Q9NYW7); assay: Antagonist activity at recombinant human N-terminal rat ST3 receptor-fused TAS2R1 expressed in HEK293T cells co-expressing Galpha16gust44 assessed as inhibition of trans-isocohumulone-induced increase in intracellular calcium level at 100 uM by FLIPR assay
T2 sequence (whole entry): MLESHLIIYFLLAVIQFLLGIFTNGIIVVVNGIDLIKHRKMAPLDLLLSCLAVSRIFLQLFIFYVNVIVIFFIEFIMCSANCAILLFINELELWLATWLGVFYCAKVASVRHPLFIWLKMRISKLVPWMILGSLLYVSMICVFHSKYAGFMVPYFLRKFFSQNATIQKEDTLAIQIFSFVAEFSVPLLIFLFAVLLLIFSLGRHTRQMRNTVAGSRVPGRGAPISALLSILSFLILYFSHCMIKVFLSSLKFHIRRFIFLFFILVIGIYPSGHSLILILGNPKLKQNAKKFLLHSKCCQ

[3] = molecular target: T3, Taste receptor type 2 member 7 (Homo sapiens) (UniProt Q9NYW3); assay: Antagonist activity at recombinant human N-terminal rat ST3 receptor-fused TAS2R7 expressed in HEK293T cells co-expressing Galpha16gust44 assessed as inhibition of quinine sulfate-induced increase in intracellular calcium level at 100 uM by FLIPR assay
T3 sequence (whole entry): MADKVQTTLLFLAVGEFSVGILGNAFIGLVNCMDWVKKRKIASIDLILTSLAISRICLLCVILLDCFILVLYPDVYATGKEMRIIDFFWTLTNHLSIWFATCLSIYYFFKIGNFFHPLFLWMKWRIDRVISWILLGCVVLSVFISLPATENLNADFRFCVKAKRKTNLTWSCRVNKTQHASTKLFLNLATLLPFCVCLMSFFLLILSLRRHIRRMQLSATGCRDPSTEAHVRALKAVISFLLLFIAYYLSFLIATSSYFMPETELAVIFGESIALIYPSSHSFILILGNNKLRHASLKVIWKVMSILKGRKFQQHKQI

[4] = molecular target: T1, Taste receptor type 2 member 46 (Homo sapiens); assay: Agonist activity at recombinant human N-terminal rat ST3 receptor-fused TAS2R46 expressed in HEK293T cells co-expressing Galpha16gust44 assessed as increase in intracellular calcium level at 100 uM by FLIPR assay
[5] = molecular target: T4, Taste receptor type 2 member 43 (Homo sapiens) (UniProt P59537); assay: Antagonist activity at recombinant human N-terminal rat ST3 receptor-fused TAS2R43 expressed in HEK293T cells co-expressing Galpha16gust44 assessed as inhibition of aristolochic acid-induced intracellular calcium level at 100 uM by FLIPR assay
T4 sequence (whole entry): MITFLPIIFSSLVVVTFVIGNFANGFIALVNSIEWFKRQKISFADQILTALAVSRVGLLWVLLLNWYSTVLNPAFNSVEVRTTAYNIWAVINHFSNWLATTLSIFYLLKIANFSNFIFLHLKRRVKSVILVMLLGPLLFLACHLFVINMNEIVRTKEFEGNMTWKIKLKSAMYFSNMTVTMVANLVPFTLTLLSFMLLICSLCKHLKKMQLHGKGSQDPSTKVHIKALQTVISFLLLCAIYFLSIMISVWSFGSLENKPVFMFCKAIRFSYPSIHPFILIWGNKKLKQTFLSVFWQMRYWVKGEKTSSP

[6] = molecular target: T5, Taste receptor type 2 member 16 (Homo sapiens) (UniProt Q9NYV7); assay: Antagonist activity at recombinant human N-terminal rat ST3 receptor-fused TAS2R16 expressed in HEK293T cells co-expressing Galpha16gust44 assessed as inhibition of D-salicin-induced increase in intracellular calcium level at 100 uM by FLIPR assay
T5 sequence (whole entry): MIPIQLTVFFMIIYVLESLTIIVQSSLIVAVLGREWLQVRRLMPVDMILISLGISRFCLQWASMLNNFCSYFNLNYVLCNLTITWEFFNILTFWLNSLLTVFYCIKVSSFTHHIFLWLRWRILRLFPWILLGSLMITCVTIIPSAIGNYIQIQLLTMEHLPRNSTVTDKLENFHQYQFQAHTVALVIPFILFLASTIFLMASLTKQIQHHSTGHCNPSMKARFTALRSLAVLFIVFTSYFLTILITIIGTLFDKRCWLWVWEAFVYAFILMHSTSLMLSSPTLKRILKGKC

[7] = molecular target: T6, Taste receptor type 2 member 8 (Homo sapiens) (UniProt Q9NYW2); assay: Antagonist activity at recombinant human N-terminal rat ST3 receptor-fused TAS2R8 expressed in HEK293T cells co-expressing Galpha16gust44 assessed as inhibition of chloramphenicol-induced increase in intracellular calcium level at 100 uM by FLIPR assay
T6 sequence (whole entry): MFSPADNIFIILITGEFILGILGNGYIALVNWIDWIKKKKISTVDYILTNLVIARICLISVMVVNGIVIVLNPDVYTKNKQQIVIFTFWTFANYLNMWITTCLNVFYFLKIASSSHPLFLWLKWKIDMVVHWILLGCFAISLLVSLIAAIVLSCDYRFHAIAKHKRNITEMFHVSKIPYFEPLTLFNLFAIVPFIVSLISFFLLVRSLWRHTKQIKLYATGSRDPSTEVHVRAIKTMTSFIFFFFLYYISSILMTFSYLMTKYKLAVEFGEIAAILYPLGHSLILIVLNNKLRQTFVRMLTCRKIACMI

[8] = molecular target: T7, Taste receptor type 2 member 5 (Homo sapiens) (UniProt Q9NYW4); assay: Potentiation of denatonium saccharide-induced agonist activity at recombinant human N-terminal rat ST3 receptor-fused TAS2R5 expressed in HEK293T cells co-expressing Galpha16gust44 assessed as increase in intracellular calcium level at 100 uM by FLIPR assay
T7 sequence (whole entry): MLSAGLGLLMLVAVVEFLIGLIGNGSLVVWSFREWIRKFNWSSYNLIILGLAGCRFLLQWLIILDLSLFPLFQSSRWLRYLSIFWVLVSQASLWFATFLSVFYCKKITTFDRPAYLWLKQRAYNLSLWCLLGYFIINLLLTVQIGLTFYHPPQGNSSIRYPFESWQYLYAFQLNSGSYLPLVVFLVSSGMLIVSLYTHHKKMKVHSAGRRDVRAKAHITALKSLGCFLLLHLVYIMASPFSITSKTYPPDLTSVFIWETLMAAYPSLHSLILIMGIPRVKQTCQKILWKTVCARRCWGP

Structure (SMILES)	inhibition [1]	inhibition [2]	inhibition [3]	Activity [4]	inhibition [5]	inhibition [6]	inhibition [7]	Activity [8]
C/C1=C\C[C@H](O)[C@@H](C)C[C@H]2OC(=O)[C@@H](C)[C@@H]2CC1	Active	inactive	inactive	Active	Active	inactive	inactive	
C/C1=C\C[C@H](O)/C(C)=C/[C@H]2OC(=O)[C@@H](C)[C@@H]2CC1	Active	inactive		inactive	Active	inactive	inactive	Active
